Source: article PMC6814295 (Insect biochemistry and molecular biology, 2018)

Legend:
[1] = target: AaPK1 (Aedes aegypti pyruvate kinase 1) (Aedes aegypti, UniProt Q16F38); assay: LDH-coupled NADH oxidation at […] nm, PEP varied; type: biochemical; settings: 1 mM effector, 2 mM ADP, 20 mM MgCl2, 50 mM KCl, pH 7.5, 25 °C
[2] = target: Aedes aegypti pyruvate kinase 1 (Aedes aegypti); assay: crystal structure

Row | Compound | LDH-coupled NADH oxidation at 340 nm, PEP varied ([1]; allosteric activator) | other results
1 | O=C(CO)[C@H](O)[C@H](O)COP(=O)(O)O [R5P, ribulose-5-phosphate] |  | LDH-coupled NADH oxidation at 340 nm, PEP varied ([1]; allosteric inhibitor): while R5P is an allosteric inhibitor of AaPK1
2 | N[C@@H](CO)C(=O)O [serine] | AaPK1 is regulated by alanine, glutamine, proline, and serine in a classic allosteric fashion | 
3 | O=P(O)(O)OCC1(O)O[C@H](CO)[C@@H](O)[C@@H]1O (stereo partly shown) [F1P, fructose-1-phosphate] | our results indicate that F1P is an allosteric activator | 
4 | O=C(O)[C@@H]1CCCN1 [proline] | AaPK1 is regulated by alanine, glutamine, proline, and serine in a classic allosteric fashion | 
5 | NC(=O)CC[C@H](N)C(=O)O [glutamine] | AaPK1 is regulated by alanine, glutamine, proline, and serine in a classic allosteric fashion | 
6 | C[C@H](N)C(=O)O [alanine] | AaPK1 is regulated by alanine, glutamine, proline, and serine in a classic allosteric fashion | 
7 | Aedes aegypti pyruvate kinase 1 (enzyme) |  | stoichiometry N [2]: 4
